According to US20250145715A1, “B7-H3 TARGETING FUSION PROTEINS AND METHODS OF USE THEREOF” (GT Biopharma, Inc., priority 2021, published 2025):

Experiments:
[1] = tested on: OVCAR3 ovarian cancer cells; assay: NK cell CD107a / IFNγ flow cytometry against OVCAR3; type: cell-based, human; details: 30 nM, E:T 2:1, 4 hrs; vs no treatment and rhIL-15 alone
Method: Healthy donor or ovarian cancer PBMC cells were incubated with ovarian tumor targets at 2:1 E:T ratio for 4 hrs with 30 nM TriKE or control condition. FIG. 30A is a graph illustrating pooled proportion of NK cells from healthy donors expressing CD107a+ (degranulation) against OVCAR8 targets (N=8). FIG. 30B is a graph illustrating pooled proportion of NK cells from healthy donors expressing IFNγ cytokine production against OVCAR8 targets (N=8). FIG. 30C is a graph illustrating pooled proportion of NK cells from healthy donors expressing CD107a+ (degranulation) against OVCAR3 targets (N=4). […] FIG. 30I is a graph illustrating that tumor killing was evaluated using IncuCyte imaging assay. […] The percentage of Live (Nuclight Red+Caspase 3/7−) tumor cells was quantified over a 48-h period and normalized to tumor alone. Readings were obtained every 15 min (representative of four separate experiments). * p<0.05, ** p<0.01, *** p<0.001, and **** p<0.0001.
ADCC was measured in a flow cytometry assay by evaluating degranulation via CD107a (lysosomal-associated membrane protein LAMP-1) and intracellular IFNγ production. […] Samples were washed and evaluated in an LSRII flow cytometer (BD Biosciences, San Jose, CA, USA).
The ability of cam1615B7-H3 TriKE to mediate NK cell activity against ovarian cancer cells was evaluated. […]

lung cancer cell lines = assay: NK cell activation against lung cancer cell lines vs K562 / Raji; type: cell-based, human
Method: ADCC was measured in a flow cytometry assay by evaluating degranulation via CD107a (lysosomal-associated membrane protein LAMP-1) and intracellular IFNγ production. Upon thawing, normal donor and patient-derived PBMCs or ascites cells were rested overnight (37° C., 5% CO2) in RPMI 1640 media supplemented with 10% fetal calf serum (RPMI-10). The next morning, they were suspended with tumor-target cells or media after washing twice with RPMI-10. Cells were then incubated with TriKEs or controls for 10 min at 37° C. Fluorescein isothiocyate (FITC)-conjugated anti-human CD107a monoclonal antibody (BD Biosciences, San Jose, CA, USA) was then added. Following an hour 37° C. incubation, GolgiStop (1:1500, BD Biosciences) and GolgiPlug (1:1000, BD Biosciences) were added for 3 h. After washing with phosphate buffered saline, the cells were stained with PE/Cy 7-conjugated anti-CD56 mAb, APC/Cy 7-conjugated anti-CD16 mAb, and PE-CF594-conjugated anti-CD3 mAb (BioLegend, San Diego, CA, USA). Cells were incubated for 15 min at 4° C., washed, and fixed with 2% paraformaldehyde. Cells were then permeabilized using an intracellular perm buffer (BioLegend) to evaluate production of IFNγ through detection via aBV650 conjugated anti-human IFNγ antibody (BioLegend). Samples were washed and evaluated in an LSRII flow cytometer (BD Biosciences, San Jose, CA, USA). […]

cam1615B7-H3: second-generation TriKE: humanized camelid anti-CD16 VHH, human wild-type IL-15, anti-B7-H3 mAb 376.96 scFv; SEQ ID NO:1
NK cell degranulation against OVCAR3 [1]: robust | NK cell intracellular IFNγ production against OVCAR3 [1]: robust | NK cell degranulation and IFNγ production against lung cancer cells vs K562 targets alone (lung cancer cell lines): higher than that seen when NK cells are incubated with K562 targets alone | B7-H3 specificity of activation against lung cancer cell lines (lung cancer cell lines; vs B7-H3− Raji cells): specific to B7-H3 expression
